Data taken from patent US6251917A, “Benzamidoaldehydes and their use as cysteine protease inhibitors” (BASF Aktiengesellschaft, priority 1996, dated 2001).

Biological target: T1, Human μ-calpain (Homo sapiens, UniProt P07384)
T1 construct: Human μ-calpain is isolated from erythrocytes; from tissue; host or cells: human erythrocytes
T1 sequence (P07384 1-714): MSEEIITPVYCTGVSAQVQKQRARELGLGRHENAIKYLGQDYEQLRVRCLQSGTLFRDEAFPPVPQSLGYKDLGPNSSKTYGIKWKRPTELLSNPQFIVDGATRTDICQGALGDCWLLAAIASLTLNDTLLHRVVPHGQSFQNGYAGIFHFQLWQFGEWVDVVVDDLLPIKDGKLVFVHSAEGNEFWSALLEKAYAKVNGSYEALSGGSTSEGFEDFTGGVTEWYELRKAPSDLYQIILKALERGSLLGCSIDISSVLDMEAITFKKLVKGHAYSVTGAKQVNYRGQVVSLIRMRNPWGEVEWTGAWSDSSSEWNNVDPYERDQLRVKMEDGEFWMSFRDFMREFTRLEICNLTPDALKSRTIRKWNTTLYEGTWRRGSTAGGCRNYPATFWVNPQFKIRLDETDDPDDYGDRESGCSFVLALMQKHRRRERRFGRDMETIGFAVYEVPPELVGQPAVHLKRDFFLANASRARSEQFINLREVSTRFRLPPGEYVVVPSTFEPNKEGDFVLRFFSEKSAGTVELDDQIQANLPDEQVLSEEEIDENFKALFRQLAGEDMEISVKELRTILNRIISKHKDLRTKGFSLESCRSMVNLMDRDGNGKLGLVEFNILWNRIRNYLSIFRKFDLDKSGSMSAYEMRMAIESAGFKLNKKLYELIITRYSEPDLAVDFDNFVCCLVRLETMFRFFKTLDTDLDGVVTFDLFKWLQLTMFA
T1 sequence (P04632 1-268 partner): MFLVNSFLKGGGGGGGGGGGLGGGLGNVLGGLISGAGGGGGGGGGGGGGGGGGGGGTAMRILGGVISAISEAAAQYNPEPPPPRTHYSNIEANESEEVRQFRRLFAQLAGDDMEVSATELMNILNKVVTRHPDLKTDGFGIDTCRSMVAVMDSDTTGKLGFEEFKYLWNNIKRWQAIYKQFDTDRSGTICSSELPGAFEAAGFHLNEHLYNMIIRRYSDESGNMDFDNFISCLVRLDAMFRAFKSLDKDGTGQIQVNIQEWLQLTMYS
Test: Calpain I and II test (fluorogenic substrate Suc-Leu-Tyr-AMC)
Type: biochemical
Method: The inhibitory properties of calpain inhibitors were studied in a buffer containing 50 mM of Tris-HCl, pH 7.5; 0.1 M of NaCl; 1 mM of dithiotreithol; 0.11 mM of CaCl2, using the fluorogenic calpain substrate Suc-Leu-Tyr-AMC (25 mM dissolved in DMSO, Bachem/Switzerland) (Sasaki et al. J. Biol. Chem. 1984, Vol. 259, 12489-12494). Human μ-calpain is isolated from erythrocytes similarly to the methods of Croall and DeMartino (BBA 1984, Vol. 788, 348-355) and Graybill et al. (Bioorg. & Med. Lett. 1995, Vol. 5, 387-392). After several chromatographic steps (DEAE-Sepharose, Phenyl-Sepharose, Superdex 200 and Blue-Sepharose), the enzyme is obtained in a purity of <[sic] 95%, according to SDS-PAGE, Western blot analysis and N-terminal sequencing. The fluorescence of the cleavage product 7-amino-4-methylcoumarin (AMC) is monitored in a Spex-Fluorolog fluorimeter at λex =380 nm an λem =460 nm. Over a measured range of 60 min, the cleavage of the substrate is linear and the autocatalytic activity of calpain is low when the experiments are carried out at 12° C. (see Chatterjee et al. 1996, Bioorg. & Med. Chem. Lett., Vol 6, 1619-1622). […]
In a typical experiment, 10 μl of substrate (250 μm final) and then 10 μl of μ-calpain (2 μg/ml final, i.e. 18 nM) are added to a 1 ml cuvette containing buffer. The calpain-mediated cleavage of the substrate is measured for 15 to 20 min. […]

effectiveness compared with N-(1-3-phenylpropan-1-al-2-yl)benzamide (comparison with literature compound (M. R. Angelastro et al., J. Med. Chem. 1990, 33, 11-13)): significantly more effective | Ki (reversible inhibition, 12° C., pH 7.5): < 500 nM
SMILES: O=C[C@H](Cc1ccccc1)NC(=O)c1ccccc1-c1ccccc1 [Example 30, (S)-2-Phenyl-N-(3-phenylpropan-1-al-2-yl)benzamide]
